Results from US20220218639A1.
“And” between values parts separate entries of the source, which are not always exact repeats. Identical values can stand only once.

Assays:
δ-plasmin = molecular target: T1, δ-plasmin (Homo sapiens, UniProt P00747, DEL181-559); assay: S-2251 inhibition assay (Dixon plot), δ-plasmin; type: biochemical; details: for mode of inhibition (δ-plasmin): Dixon plot with S/Vo vs I plot; for Ki: Dixon plot, S-2251 100, 350, 750 μM, enzyme 1.0 μg/mL, PBS pH 7.4, unit inferred; for Pen X-Fold inhibition (Delta Plasmin): Ki of the inhibitor relative to Ki of pentamidine
T1 construct: made in house; host or cells: E. coli (T7 expression system, pET 24b(+))
T1 sequence (P00747 with tags, fused parts or gaps K528E/G536N/V538P/G539Q/N547D/R549E/L551R/V557I/P558L/Q559E): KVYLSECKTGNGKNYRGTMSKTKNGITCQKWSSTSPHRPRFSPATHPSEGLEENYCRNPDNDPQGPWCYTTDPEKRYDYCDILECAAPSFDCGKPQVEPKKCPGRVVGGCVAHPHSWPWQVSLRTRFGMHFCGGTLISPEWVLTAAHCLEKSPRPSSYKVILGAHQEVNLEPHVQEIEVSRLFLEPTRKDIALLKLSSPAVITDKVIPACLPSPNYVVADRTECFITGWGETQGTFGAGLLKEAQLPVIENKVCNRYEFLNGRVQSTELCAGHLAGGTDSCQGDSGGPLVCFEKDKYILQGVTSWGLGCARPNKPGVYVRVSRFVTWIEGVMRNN

plasmin [1] = molecular target: T2, plasmin (Homo sapiens, UniProt P00747); assay: S-2251 inhibition assay (Dixon plot), plasmin; type: biochemical; design: purchased Sigma-Aldrich; details: for mode of inhibition (plasmin): Dixon plot with S/Vo vs I plot; for Ki: Dixon plot, S-2251 100, 350, 750 μM, enzyme 1.0 μg/mL, PBS pH 7.4, unit inferred; for Pen X-Fold inhibition (Plasmin): Ki of the inhibitor relative to Ki of pentamidine
T2 sequence (P00747 581-810 limits assumed): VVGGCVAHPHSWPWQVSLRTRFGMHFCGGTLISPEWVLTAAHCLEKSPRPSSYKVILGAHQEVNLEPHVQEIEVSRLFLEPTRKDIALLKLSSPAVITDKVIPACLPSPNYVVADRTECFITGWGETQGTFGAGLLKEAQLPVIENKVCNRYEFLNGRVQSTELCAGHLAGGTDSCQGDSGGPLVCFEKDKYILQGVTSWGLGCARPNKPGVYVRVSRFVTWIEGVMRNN
T2 sequence (P00747 97-580 partner limits assumed): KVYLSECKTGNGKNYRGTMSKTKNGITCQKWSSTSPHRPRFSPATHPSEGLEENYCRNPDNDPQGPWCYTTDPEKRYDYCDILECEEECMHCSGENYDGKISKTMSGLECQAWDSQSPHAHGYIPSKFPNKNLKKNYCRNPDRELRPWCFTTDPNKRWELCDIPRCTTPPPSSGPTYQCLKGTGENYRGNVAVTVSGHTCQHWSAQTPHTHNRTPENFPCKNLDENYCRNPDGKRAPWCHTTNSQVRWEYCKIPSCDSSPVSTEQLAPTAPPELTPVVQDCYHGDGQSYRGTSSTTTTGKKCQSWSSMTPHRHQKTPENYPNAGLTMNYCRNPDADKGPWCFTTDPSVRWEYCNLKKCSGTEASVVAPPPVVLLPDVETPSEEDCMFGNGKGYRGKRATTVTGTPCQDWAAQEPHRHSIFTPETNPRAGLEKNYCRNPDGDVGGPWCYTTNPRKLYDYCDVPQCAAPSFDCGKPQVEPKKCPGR

plasmin [2] = molecular target: T2, plasmin; assay: Fluorescence titration dissociation constant (Kd) assay; type: binding; design: purchased Sigma-Aldrich; host or cells: human plasma; details: emission 370 nm, PBS pH 7.4, no S-2251; unit inferred; read-out: Kd by fluorescence titration (PB Fl Ki)
Protocol: Fluorescence Titration Dissociation Constant (Kd) Assay. Plasmin was titrated with increasing concentrations of 4-aminobenzamidine from 0-1000 μM in PBS buffer at pH 7.4. By monitoring the increase in fluorescence emission (excitation 280 nm, emission at 370 nm) from 4-aminobenzamdine associated plasmin, a direct determination of its dissociation constant (Kd) can be made. Fitting the data to a sigmoid the Kd value for 4-aminobenzamidine to sigma plasmin is the concentration of inhibitor at which 50% (or 0.5 or half maximum fluorescent emission is reached) intersects with the fit.
Fluorescent titration assay was carried out as described above for determining the Kd, which is the same as the Ki in the case of competitive inhibition, for the 4-aminobenzamidine derivative to plasmin in the absence of the S-2251 substrate.
p-Aminobenzamidine's fluorescent properties enable the implementation of a fluorescent titration assay to directly determine its binding affinity to plasmin. […] At a constant plasmin concentration, increasing amounts of p-aminobenzamidine were titrated into the sample monitoring the fluorescence emission at 370 nm (FIG. 10A).

[3] = Enzyme kinetics with S-2251 chromogenic substrate (Lineweaver-Burke plot); type: biochemical; design: Kcat: unit not given here; details: for Kcat: S-2251 substrate, PBS pH 7.4, unit not given
Protocol: Enzyme Kinetic and Inhibition Assays. All enzymatic assays were conducted in phosphate buffered saline (PBS, pH 7.4) at 25° C. on a Molecular Devices SpectraMax Plus 96 well plate reader. The S-2251 assay took advantage of a shift in absorbance of the substrate upon cleaving that could be monitored at a wavelength of 405 nm to determine enzyme kinetics as well as competitive inhibition Ki values for plasmin and its derivatives. […] Initial velocities were determined by the slope of the first 60 seconds of reaction with the S-2251 substrate. All experiments were carried out in triplicate and data represents means plus or minus standard deviations.
In this Example, the predicted kinetic characteristics of plasmin and delta-plasmin were compared. KM, Vmax and Kcat were determined for both full length plasmin and delta plasmin using a Lineweaver-Burke plot in which the concentration of plasmin was held constant across a range of S-2251 substrate concentrations (0-750 μM). Initial velocities for each data point were determined by the slope of the first 60 seconds of reaction with the S-2251 substrate following absorbance at 405 nm.
The Km and Kcat for the two forms of plasmin were determined utilizing an S2251 chromogenic substrate.

blood clots = assay: Clot digestion assay in serum; details: 50% serum, 2 hours room temp, background-corrected
Protocol: In this Example, blood clot digestion by nanoparticles prepared using 4-carboxybenzamidine conjugated micelles and delta plasmin was analyzed in both PBS and serum.
Fresh blood was drawn and clotted in glass tubes at 37° C. for 1.5 hours. Clots were then cut, excess liquid was removed via light blotting, and weighed to produce clots of ˜600 mg size. Clots were then transferred to phosphate buffered saline (PBS at pH 7.4) or serum. […] After incubation, the blood clots were again lightly blotted and weighed. Experimental parameters are summarized in Table 3 for the clot digestion assay performed in serum.

Compound | mode of inhibition (δ-plasmin) (δ-plasmin) | Ki (δ-plasmin) | Pen X-Fold inhibition (Delta Plasmin) (δ-plasmin) | mode of inhibition (plasmin) (plasmin [1]) | Ki (plasmin [1]) | Pen X-Fold inhibition (Plasmin) (plasmin [1]) | Kd (plasmin [2]) [µM] | stronger inhibition than the next best inhibitor (delta plasmin) (δ-plasmin; from Ki values) [fold] | stronger inhibition than the next best inhibitor (plasmin) (plasmin [1]; from Ki values) [fold] | Vmax ([3]; S-2251 0-750 μM, PBS pH 7.4, 25° C.) | Km ([3]; S-2251 0-750 μM, PBS pH 7.4, 25° C., unit inferred) [µM] | Kcat [3] | Kcat ([3]; listed as δ-plasmin) | clot digestion (blood clots) [%]
N=C(N)c1ccccc1 [Benzamidine] | purely competitive | – | – | purely competitive | – | – | – | – | – | – | – | – | – | –
N=C(N)c1ccc(OCCCCCOc2ccc(C(=N)N)cc2)cc1 [Pentamidine] | primarily competitive | – | – | primarily competitive | < 4 µM and 2.2 µM | – | – | > 15 | > 15 | – | – | – | – | –
Delta Plasmin: Recombinant plasmin variant with K2-K5 deleted; kringle 1 linked directly with the catalytic domain (SEQ ID NO:2 zymogen) | – | – | – | – | – | – | – | – | – | 19.5 | 325 ± 8.43 | 778.2 | 778.21±1.51 | 7.175

Continued, in another order:

mode of inhibition (δ-plasmin) (δ-plasmin) | Ki (δ-plasmin) | Pen X-Fold inhibition (Delta Plasmin) (δ-plasmin) | mode of inhibition (plasmin) (plasmin [1]) | Ki (plasmin [1]) | Pen X-Fold inhibition (Plasmin) (plasmin [1]) | Kd (plasmin [2]) [µM] | Compound | stronger inhibition than the next best inhibitor (delta plasmin) (δ-plasmin; from Ki values) [fold] | stronger inhibition than the next best inhibitor (plasmin) (plasmin [1]; from Ki values) [fold] | Vmax ([3]; S-2251 0-750 μM, PBS pH 7.4, 25° C.) | Km ([3]; S-2251 0-750 μM, PBS pH 7.4, 25° C., unit inferred) [µM] | Kcat [3] | Kcat ([3]; listed as δ-plasmin) | clot digestion (blood clots) [%]
purely competitive | 60.6 ± 6.72 µM | 15.2 | purely competitive | 51.9 ± 2.38 µM | 23.8 | 53.5 ± 4.42 | N=C(N)c1ccc(N)cc1 [4-Aminobenzamidine] | – | – | – | – | – | – | –
purely competitive | > 1000 µM and 1410 µM | 353.8 | purely competitive | > 1000 µM and 1070 µM | 493.0 | – | N=C(N)c1ccc(CN)cc1 [4-Aminomethyl Benzamidine] | – | – | – | – | – | – | –
purely competitive | 302 ± 19.2 µM | 75.8 | purely competitive | 292 µM and 293 µM | 134.2 | – | N=C(N)c1ccc(C(=O)O)cc1 [4-Carboxybenzamidine] | – | – | – | – | – | – | –
